Source: patent US12729381B2, “Methods and compositions for inactivating interleukin-2-inducible t-cell kinase (ITK)” (priority 2020, dated 2026)
Non-standard residues stand in square brackets, D forms with d. No end group written: not given here. *: point of attachment. FITC = O=C1OC2(c3ccc(O)cc3Oc3cc(O)ccc32)c2ccc(NC(=S)*)cc21; pY = N[C@@H](Cc1ccc(OP(=O)(O)O)cc1)C(=O)O

System: SLP76: ITK signaling
Assay: Western blot of signaling proteins in human T cells from PBMC stimulated with anti-CD3 (OKT3)
Type: cell-based
Details: vs vehicle alone
Method: Western blotting: For protein analysis, T cells were either nonstimulated, or stimulated with anti-CD3 and anti-CD28 for 24 hours overnight, and were lysed with freshly prepared lysis buffer (RIPA Buffer (Fisher Scientific cat #PI89900)+cOmplete Protease Inhibitor Cocktail (Sigma-Aldrich; cat #11697498001)) and centrifuged for 10 minutes at 14000 rpm at 4° C. Protein aliquots of 70 μg of protein were loaded on a 12-18% denaturing polyacrylamide gel and transferred to nitrocellulose membranes for immunoblot analysis using antibodies specific to proteins of interest.
Human Samples: According to our IRB protocol (1140566-4), blood samples were obtained by vein puncture, and T cells were isolated from peripheral blood mononuclear cells (PBMC) of regular healthy donors. T cells were isolated from patient and healthy donor samples by Ficoll-Hypaque density centrifugation. The final product was resuspended at 3×10^6 cells/ml in media and stimulated with OKT-3/anti-CD3 ([…]; Ortho Bio-Tech) and anti-human CD28 ([…]; Biolegend; cat #302902) presence of […] of protamine sulfate and 1 mg/ml SLP76pTYR or vehicle for five minutes. T cell lysates were used in western blot analysis.
ITK deficiency is known to enhance the development of regulatory T cells (Tregs) (Elmore et al., 2020, Owen et al., 2019) so the peptide inhibitor was tested to determine whether inhibition of the ITK: SLP76Y145 interactions using SLP76pTYR would induce Tregs. First, the frequency of Tregs was examined by expression of CD4^+ and FoxP3^+ (FIG. 18A). Next, total mouse T cells were stimulated with anti-CD3 (Sugie et al., 2004) in the presence of either SLP76pTYR, nonspecific peptide, or vehicle alone for 5 to 24 hours, and cells were harvested and examined for the presence of Tregs (CD4^+CD25^+FoxP3^+). […] Next, the effects of SLP76pTYR peptide on human PBMC samples from healthy human patients was investigated. T cells from these patients were stimulated with anti-CD3 (OKT3) (Karimi et al., 2005) for 5 minutes in the presence of SLP76pTYR or vehicle alone. […] No differences in stimulated or unstimulated total human AKT (FIG. 18E and FIG. 28H) was observed, providing a showing that the SLP76pTYR peptide has an impact on signaling pathways downstream of SLP76 in both mouse and human T cells. […] Next, the ability of SLP76pTYR peptide to affect the production of proinflammatory cytokines in human PBMCs was investigated. T cells from healthy human were stimulated with anti-CD3 (OKT3) and anti-CD28 in the presence of SLP76pTYR or vehicle alone, along with Brefeldin A. T cells incubated with SLP76pTYR or vehicle alone were also examined in the presence of PMA+lonomycin and Brefeldin A for 6 hours.
More specifically, FIGS. 18A-18F depict Novel peptide SLP76pTYR specifically targets SLP76: ITK signaling and enhances Treg cell development. (FIG. 18A) Murine CD4^+ T cells were examine for total CD4+ and FOXP3 expression prior to treatment with SLP76pTYR. n=3, and one representative experiment is shown. (FIG. 18B) Total T cells stimulated in the presence of SLP76pTYR, nonspecific peptide, or vehicle alone were examined for total CD4 cells that are FoxP3^+. n=3, and one representative experiment is shown. (FIG. 18C) Quantification of three experiments as in (A) (FIG. 18D) Cell lysates were obtained from mouse T cells stimulated with anti-CD3 and anti-CD28 in the presence of SLP76pTYR, or vehicle alone. […]

## FITC Dye ^132NEEEEAPVEDDADpYEPPPSNDEEA^155-TAT ({FITC}-NEEEEAPVEDDAD[pY]EPPPSNDEEAGRKKRRQRRRPQ) [SLP76pTYR]
anti-CD3 (OKT3) for 5 minutes
  phosphorylation of ERK, stimulated: reduced phosphorylation of PLCγ1 and ERK
  phosphorylation of PLCγ1, stimulated: reduced phosphorylation of PLCγ1 and ERK
non-stimulated T cells
  non-stimulated phospho ERK: No differences in non-stimulated phospho PLCγ1 and ERK were observed
  non-stimulated phospho PLCγ1: No differences in non-stimulated phospho PLCγ1 and ERK were observed
  total AKT and stimulated or unstimulated phospho AKT: No differences in total AKT or either stimulated or unstimulated phospho AKT was observed
